Test results from patent publication US5272175A, “Substituted tyrosyl diamide compounds” (priority 1992, dated 1993).
Counter-ions that a name gives are not always drawn. Like-named read-outs stand apart in the source and are kept apart here.

Legend:
μ opioid receptors = μ opioid receptors (Rattus norvegicus, UniProt P33535); test: Opiate Binding Assay, displacement of 3[H]-DAMPGO from μ receptors
δ opioid receptors = δ opioid receptors (Rattus norvegicus, UniProt P33533); test: Opiate Binding Assay, displacement of 3[H]-DSLET from δ receptors; settings: for Mean IC50 μ/δ Ratio: ratio of mean IC50 values for μ and δ, above 1.0 = more δ specific
δ opioid receptors, sequence (P33533 whole entry): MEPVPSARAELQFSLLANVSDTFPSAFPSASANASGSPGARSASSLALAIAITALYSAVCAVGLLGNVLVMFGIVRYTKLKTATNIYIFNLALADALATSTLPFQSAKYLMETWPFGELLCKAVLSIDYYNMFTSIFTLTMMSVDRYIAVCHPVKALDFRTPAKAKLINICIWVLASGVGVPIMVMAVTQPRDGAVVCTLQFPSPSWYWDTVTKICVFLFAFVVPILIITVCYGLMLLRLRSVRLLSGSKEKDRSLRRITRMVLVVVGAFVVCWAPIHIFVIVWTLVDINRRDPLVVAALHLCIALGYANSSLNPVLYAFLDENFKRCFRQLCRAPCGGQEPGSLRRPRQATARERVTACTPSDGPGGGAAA

[1] = read-out: Mean IC50 Value, μ, rat forebrain membranes, 3[H]-DAMPGO 2.0 nM, 37° C., pH 7.4
[2] = read-out: Mean IC50 Value, δ, rat forebrain membranes, 3[H]-DSLET 1.0 nM, 37° C., pH 7.4

μ opioid receptors, sequence (P33535 whole entry): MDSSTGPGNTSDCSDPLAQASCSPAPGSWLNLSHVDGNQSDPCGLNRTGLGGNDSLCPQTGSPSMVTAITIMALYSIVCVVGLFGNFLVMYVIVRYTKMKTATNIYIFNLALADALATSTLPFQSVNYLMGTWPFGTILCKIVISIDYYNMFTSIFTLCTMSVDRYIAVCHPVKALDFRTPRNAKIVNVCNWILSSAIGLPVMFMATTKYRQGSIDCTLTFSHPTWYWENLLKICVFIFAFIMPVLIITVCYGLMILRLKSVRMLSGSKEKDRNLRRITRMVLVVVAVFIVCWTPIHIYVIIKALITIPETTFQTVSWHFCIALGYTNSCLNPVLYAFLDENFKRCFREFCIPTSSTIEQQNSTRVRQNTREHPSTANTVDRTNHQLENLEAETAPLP

Row | SMILES | IC50 (μ opioid receptors) | IC50 (δ opioid receptors) | Mean IC50 μ/δ Ratio (δ opioid receptors) | IC50 (μ opioid receptors; [1]) | IC50 (δ opioid receptors; [2])
1 | Cc1cc(O)cc(C)c1C[C@H](N)C(=O)NC(C)(C)CNC(=O)[C@H](Cc1ccccc1)NC(=O)NCc1ccccc1 [Example 33, αS-amino-N-[1,1-dimethyl-2-[[1-oxo-3-phenyl-2S-[[[(phenylmethyl)amino]carbonyl]amino]propyl]-amino]ethyl]-4-hydroxy-2,6-dimethylbenzeneprooanamide, hydrochloride] | < 10 nM | ~2 nM |  |  | 
2 | CC(=O)N[C@@H](Cc1ccc(F)cc1)C(=O)NCC(C)(C)NC(=O)[C@@H](N)Cc1c(C)cc(O)cc1C [Example 6, αS-(Acetylamino)-N-2-[2S-amino-3-(4-hydroxy-2,6-dimethylphenyl) -1-oxopropyl]amino]-2-methyloropyl]-4-fluorobenzenepropanamide, monohydrochloride] | 1.1 nM | 1.8 nM | 0.6 |  | 
3 | Cc1cc(O)c(C)c(C)c1C[C@@H](N)C(=O)NC(C)(C)CNC(=O)[C@H](Cc1ccccc1)NC(=O)OCc1ccccc1 [Example 31, Phenylmethyl[1S[[[2-[[2R-amino-3-(4-hydroxy-2,3,6-trimethylphenyl) -1-oxopropyl]amino]-2-methylpropyl]amino]carbonyl1-2-phenylethyl]carbamate, hydrochloride] | 100 nM | > 100 nM |  |  | 
4 | CC(=O)N[C@H](C(=O)NCC(C)(C)NC(=O)[C@@H](N)Cc1c(C)cc(O)cc1C)c1ccccc1 [Example 20, N-[2-[[2S-(acetylamino)-2-phenylacetyl]amino]-1,1-dimethylethyl]-αS-amino-4-hydroxy-2,6-dimethylbenzenepropanamide, hydrochloride] | 1.2 nM | 19.3 nM | 0.06 |  | 
5 | Cc1cc(O)cc(C)c1C[C@H](NC(=O)OC(C)(C)C)C(=O)NCCNC(=O)[C@@H](N)Cc1ccccc1 [Example 23, 1,1-dimethylethyl[1S-[[[2-[[(2S-amino-l-oxo-3-phenylpropyl)amino]ethyl]amino]carbonyl]-2-(4-hydroxy-2,6-dimethylohenyl)ethyl]carbamate, acetate (salt)] | 1000 nM | 100 nM | 10 |  | 
6 | CC(=O)N[C@@H](Cc1c(C)cccc1C)C(=O)NCCNC(=O)[C@@H](N)Cc1ccc(O)cc1 [Example 51, αS-(Acetylamino)-N-[2-[[2S-amino-3-(4-hydroxyphenyl)-1-oxopropyl]amino]ethyl]-2,6-dimethylbenzenepropanamide. hydrochloride] |  | > 50 nM |  |  | 
7 | Cc1cc(O)cc(C)c1C[C@H](N)C(=O)NCC(C)(C)NC(=O)[C@H](Cc1ccccc1)NC(=O)OCc1ccccc1 [Example 26, Phenylmethyl[1S-[[[2-[[2S-amino-3-(4-hydroxy-2,6-dimethylphenyl)-1-oxopropyl]amino]-1,1-dimethylethyl1-amino]carbonyl]-2-phenylethyl]carbamate, monohydrochloride] | 19 nM | 29.8 nM | 0.6 |  | 
8 | Cc1cc(O)cc(C)c1C[C@H](NC(=O)OC(C)(C)C)C(=O)NC(C)(C)CNC(=O)[C@@H](N)Cc1ccccc1 [Example 11, acetic acid salt] | 1000 nM | 100 nM | 10 |  | 
9 | Cc1cc(O)cc(C)c1C[C@H](N)C(=O)NC(C)(C)CNC(=O)[C@H](Cc1ccc(F)cc1)NC(=O)OCc1ccccc1 [Example 8, Phenylmethyl[1S-[[[2-[[2S-amino-3-(4-hydroxy-2,6-dimethylohenyl)-1-oxopropyllamino]-methylpropyl]amino]-carbonyl]-2-(4-fluorophenyl)ethyl]carbamate. monohydrochloride] | < 10 nM | 28 nM |  |  | 
10 | CCOC(=O)CNC(=O)N[C@@H](Cc1ccccc1)C(=O)NCC(C)(C)NC(=O)[C@@H](N)Cc1c(C)cc(O)cc1C [Example 35, hydrochloride] |  |  |  | < 10 nM | ~2 nM
11 | CC(=O)N[C@@H](Cc1ccccc1)C(=O)N1CCN(C(=O)[C@@H](N)Cc2c(C)cc(O)cc2C)CC1 [Example 54, N-[1S-[[4-[2-S-Amino-3-(4-hydroxy-2,6-dimethylphenyl)-1-oxopropyl]-1-piperazinyl]carbonyl]-2-phenylethyl]acetamide, monohydrochloride] | 3.3 nM | 88.8 nM | 0.04 |  | 
12 | Cc1cc(O)c(C)c(C)c1C[C@H](N)C(=O)NC(C)(C)CNC(=O)[C@H](Cc1ccccc1)NC(=O)OCc1ccccc1 [Example 30, Phenylmethyl[1S[[[2-[[2S-amino-3-(4-hydroxy-2,3,6-trimethylphenyl)-1-oxopropyl]amino]-2-methylpropyl]amino]carbonyl]-2-phenylethyl]carbamate, hydrochloride] | < 10 nM | 100 nM |  |  | 
13 | CC(=O)N[C@@H](Cc1ccccc1)C(=O)N1CCC(NC(=O)[C@@H](N)Cc2c(C)cc(O)cc2C)C1 (stereo partly drawn) [Example 56, N-1-[2S-(Acetylamino)-1-oxo-3-phenylpropyl]-3-pyrrolidinyl]-αS-amino-4-hydroxy-2,6-dimethylbenzenepropanamide, monohydrochloride] | 85.5 nM | 50.3 nM | 1.7 |  | 
14 | Cc1cc(O)cc(C)c1C[C@H](N)C(=O)NC(C)(C)CNC(=O)[C@H](Cc1ccccc1)NC(=O)C(F)(F)F [Example 14, αS-Amino-N-[1,1-dimethyl-2-[[1-oxo-3-phenyl-2S-[[trifluoroacetyl-amino]propyl]aminoethyl]-4-hydroxy-2,6-dimethylbenzenepropanamide, hydrochloride] | 0.54 nM | 0.64 nM | 0.8 |  | 
15 | CC(=O)N[C@@H](Cc1ccccc1)C(=O)NC(C)(C)CNC(=O)[C@@H](N)Cc1c(C)cc(O)cc1C [Example 39, αS-(Acetylamino)-N-[2-[[2S-amino-3-(4-hydroxy-2,6-dimethylphenyl)-1-oxopropyl]amino]-1,1-dimethylethyl]-benzenepropanamide, monohydrochloride] | 4.7 nM | 7.8 nM | 0.6 |  | 
16 | Cc1cc(O)cc(C)c1C[C@H](N)C(=O)N[C@H](C)CNC(=O)[C@H](Cc1ccccc1)NC(=O)OCc1ccccc1 [Example 46, Phenylmethyl[1S[[[2R-[[2S-amino-3-(4-hydroxy-2,6-dimethylphenyl) -1-oxopropyl]amino]propylamino]carbonyl]-2-phenylethyllcarbamate, hydrochloride] | 0.88 nM | 4.2 nM | 0.2 |  | 
17 | CC(=O)N[C@@H](Cc1ccccc1)C(=O)NCC(C)(C)NC(=O)[C@H](N)Cc1c(C)cc(O)c(C)c1C [Example 41, αS-(acetylamino)-N-[2-[[2R-amino-3-(4-hydroxy-2,3,6-trimethylphenyl) -1-oxopropyl]amino]-2-methylpropyl]benzenepropanamide, monohydrochloride] | 122 nM | 257 nM | 0.5 |  | 
18 | CC(=O)N[C@@H](Cc1ccccc1)C(=O)NCCNC(=O)[C@@H](N)Cc1c(C)cc(O)cc1C [Example 48, αS-(Acetylamino)-N-[(2-[[2S-amino-3-(4-hydroxy-2,6-dimethylphenyl)-1-oxopropyl]aminoethyl]benzenepropanamide, hydrochloride] | 0.3 nM | 2.9 nM | 0.1 |  | 
19 | CC(=O)N[C@@H](Cc1ccccc1)C(=O)Nc1cccc(NC(=O)[C@@H](N)Cc2c(C)cc(O)cc2C)c1 [Example 57, αS-(Acetylamino)-N-[3[[[2S-amino-3-[4-hydroxy-2,6-dimethylphenyl]-1-oxopropylamino]phenyl]benzenepropanamide, hydrochloride] |  | 100 nM |  |  | 
20 | C=CCNC(=O)N[C@@H](Cc1ccccc1)C(=O)NCC(C)(C)NC(=O)[C@@H](N)Cc1c(C)cc(O)cc1C [Example 28, αS-amino-N-[1,1-dimethyl-2-[1-oxo-3-phenyl-2S-[(2-propenylamino)carbonyl]amino]propyl]amino]ethyl]-4-hydroxy-2,6-dimethylbenzenepropanamide, monohydrochloride] | < 10 nM | ~2 nM |  |  | 
21 | Cc1cc(O)cc(C)c1C[C@H](N)C(=O)NCCNC(=O)[C@@H](N)Cc1ccccc1 [Example 24, αS-amino-N-[2-[[2S-amino-3-(4-hydroxy-2,6-dimethylphenyl) -1-oxopropyl]amino]ethyl]benzenepropanamide, dihydrochloride] | 3.7 nM | 562 nM | 0.01 |  | 
22 | Cc1cc(O)cc(C)c1C[C@H](N)C(=O)NC(C)(C)CNC(=O)[C@H](Cc1ccccc1)NC(=O)NS(=O)(=O)c1ccccc1 [Example 59, S-amino-N-[1,1-dimethyl-2-[[1-oxo-3-phenyl-2S-[[[(phenylsulfonyl)amino]carbonyl]amino]propyl]amino]ethyl]-4-hydroxy-2,6-dimethylbenzeneoropanamide, monohydrochloride] | 3.2 nM | 7.3 nM | 0.4 |  | 
23 | Cc1cc(O)cc(C)c1C[C@H](N)C(=O)NCCNC(=O)[C@H](Cc1ccccc1)NC(=O)OCc1ccccc1 [Example 22, Phenylmethyl[1S-[[(2-(8 [2S-amino-3-[4-hydroxy-2,6-dimethylphenyl) -1-oxopropyl]ethylaminocarbonyl-2-phenylethylcarbamate, monohydrochloride] | 2.6 nM | 3.1 nM | 0.8 |  | 
24 | Cc1cc(O)cc(C)c1C[C@H](NC(=O)OC(C)(C)C)C(=O)NC(C)(C)CN [Example 4, 1,1-Dimethylethyl[1S-[[(2-amino-1,1-dimethylethyl)amino]carbonyl]-2-(4-hydroxy-2,6-dimethylphenyl)ethyl]carbamate] |  |  | 10 | 1000 nM | 100 nM
25 | Cc1cc(O)cc(C)c1C[C@H](N)C(=O)NC(C)(C)CNC(=O)[C@@H](N)Cc1ccccc1 [Example 12, αS-amino-N-[2-[2S-amino-3-(4-hydroxy-2,6-dimethylphenyl) -1-oxopropyl]amino]-2-methylpropyl]benzenepropanamide, dihydrochloride] | 3.4 nM | 31.4 nM | 0.1 |  | 
